Source: patent US12655116B2, “Substituted isophthalic acid diamides” (Bayer Aktiengesellschaft, priority 2020, dated 2026)

Legend:
DIGSA [1] = experiment: Pre-emergence herbicidal action against DIGSA; format: in vivo, Digitaria sanguinalis
Source text: (§1) Seeds of monocotyledonous and dicotyledonous weed plants and crop plants are laid out in sandy loam soil in wood-fiber pots and covered with soil. The compounds of the invention, formulated in the form of wettable powders (WP) or as emulsion concentrates (EC), are then applied to the surface of the covering soil in the form of an aqueous suspension or emulsion at a water application rate equivalent to 600 to 800 l/ha, with addition of 0.2% wetting agent. After the treatment, the pots are placed in a greenhouse and kept under good growth conditions for the trial plants. The damage to the test plants is scored visually after a test period of 3 weeks by comparison with untreated controls (herbicidal activity in percent (%): 100% activity=the plants have died, 0% activity=like control plants). […] The tables below illustrate, in an illustrative manner, the post-emergence herbicidal action of the compounds of the invention, the herbicidal activity being stated in percent.

SETVI [2] = experiment: Pre-emergence herbicidal action against SETVI; format: in vivo, Setaria viridis; conditions: dosage 80 g/ha
Source text: as §1

ALOMY [3] = experiment: Post-emergence herbicidal action against ALOMY; format: in vivo, Alopecurus myosuroides; conditions: dosage 20 g/ha, visual assessment about 3 weeks after treatment vs untreated controls
Experimental: (§2) Seeds of monocotyledonous and dicotyledonous weed and crop plants are laid out in sandy loam soil in wood-fiber pots, covered with soil and cultivated in a greenhouse under good growth conditions. 2 to 3 weeks after sowing, the test plants are treated at the one-leaf stage. The compounds of the invention, formulated in the form of wettable powders (WP) or as emulsion concentrates (EC), are then sprayed onto the green parts of the plants in the form of an aqueous suspension or emulsion at a water application rate equivalent to 600 to 800 l/ha, with addition of 0.2% wetting agent. After the test plants have been left to stand in the greenhouse under optimal growth conditions for about 3 weeks, the action of the preparations is assessed visually in comparison to untreated controls (herbicidal action in percent (%): 100% activity=the plants have died, 0% activity=like control plants). […] The tables below illustrate, in an illustrative manner, the post-emergence herbicidal action of the compounds of the invention, the herbicidal activity being stated in percent.

PHBPU = experiment: Post-emergence herbicidal action against PHBPU; format: in vivo, Pharbitis purpurea; conditions: dosage 20 g/ha
Experimental: as §2

SETVI [4] = experiment: Post-emergence herbicidal action against SETVI; format: in vivo, Setaria viridis; conditions: for pest or weed control at 20 g/ha: Setaria viridis, 504 h
Experimental: as §2

ALOMY [5] = experiment: Pre-emergence herbicidal action against ALOMY; format: in vivo, Alopecurus myosuroides; conditions: 80 g/ha, pre-emergence, scored visually after 3 weeks vs untreated controls (100% = plants have died, 0% = like control plants)
Source text: as §1

AMARE [6] = experiment: Pre-emergence herbicidal action against AMARE; format: in vivo, Amaranthus retroflexus; conditions: for pest or weed control at 20 g/ha / pest or weed control at 80 g/ha: Amaranthus retroflexus, 504 h
Source text: as §1

ABUTH [7] = experiment: Pre-emergence herbicidal action against ABUTH; format: in vivo, Abutilon theophrasti; conditions: for Pre-emergence action against ABUTH (herbicidal activity) / pest or weed control at 80 g/ha: 80 g/ha, scored visually after 3 weeks vs untreated controls (100% = plants have died, 0% = like control plants); for Pre-emergence action against ABUTH (herbicidal activity in percent): dosage 20 g/ha, scored visually after 3 weeks vs untreated controls, 100% = plants have died, 0% = like control plants; for pest or weed control at 80 g/ha: Abutilon theophrasti, 504 h
Source text: as §1

ECHCG [8] = experiment: Pre-emergence herbicidal action against ECHCG; format: in vivo, Echinochloa crus-galli; conditions: 80 g/ha
Source text: as §1

AMARE [9] = experiment: Post-emergence herbicidal action against AMARE; format: in vivo, Amaranthus retroflexus; conditions: 20 g/ha, visual assessment about 3 weeks after treatment, 100% = plants have died, 0% = like control plants; for pest or weed control at 20 g/ha: Amaranthus retroflexus, 504 h
Experimental: as §2

MATIN [10] = experiment: Pre-emergence herbicidal action against MATIN; format: in vivo, Matricaria inodora; conditions: for pest or weed control at 80 g/ha: Tripleurospermum inodorum, 504 h
Source text: as §1

VIOTR = experiment: Pre-emergence herbicidal action against VIOTR; format: in vivo, Viola tricolor; conditions: for pest or weed control at 80 g/ha: Viola tricolor, 504 h
Source text: as §1

ABUTH [11] = experiment: Post-emergence herbicidal action against ABUTH; format: in vivo, Abutilon theophrasti; conditions: visual assessment about 3 weeks after treatment vs untreated controls
Experimental: as §2

MATIN [12] = experiment: Post-emergence herbicidal action against MATIN; format: in vivo, Matricaria inodora; conditions: dosage 20 g/ha
Experimental: as §2

VERPE = experiment: Pre-emergence herbicidal action against VERPE; format: in vivo, Veronica persica; conditions: dosage 80 g/ha; for pest or weed control at 80 g/ha: Veronica persica, 504 h
Source text: as §1

DIGSA [13] = experiment: Post-emergence herbicidal action against DIGSA; format: in vivo, Digitaria sanguinalis
Experimental: as §2

ECHCG [14] = experiment: Post-emergence herbicidal action against ECHCG; format: in vivo, Echinochloa crus-galli; conditions: for pest or weed control at 20 g/ha: Echinochloa crus-galli, 504 h
Experimental: as §2

AVEFA = experiment: Pre-emergence herbicidal action against AVEFA; format: in vivo, Avena fatua; conditions: 80 g/ha, pre-emergence
Source text: as §1

[15] = 20 g/ha, scored visually after 3 weeks vs untreated controls, 100% = plants have died, 0% = like control plants
[16] = 80 g/ha, scored visually after 3 weeks vs untreated controls (100% = plants have died, 0% = like control plants)
[17] = 80 g/ha, scored visually after 3 weeks vs untreated controls, 100% = plants have died, 0% = like control plants

SMILES	Pre-emergence action against DIGSA in % (DIGSA [1]; dosage 20 g/ha) [%]	Pre-emergence action against DIGSA in % (DIGSA [1]; dosage 80 g/ha) [%]	Pre-emergence action against SETVI in % (SETVI [2]) [%]	Post-emergence action against PHBPU in % (PHBPU) [%]	Pre-emergence action against ALOMY (herbicidal activity) (ALOMY [5]) [%]	Pre-emergence action against AMARE in % (AMARE [6]; [15]) [%]	Pre-emergence action against AMARE in % (AMARE [6]; [16]) [%]	Pre-emergence action against ABUTH (herbicidal activity) (ABUTH [7]) [%]	Pre-emergence action against ABUTH (herbicidal activity in percent) (ABUTH [7]) [%]	Pre-emergence action against ECHCG in % (ECHCG [8]) [%]	Post-emergence action at 20 g/ha against AMARE in % (AMARE [9]) [%]	Pre-emergence action against MATIN in % (MATIN [10]; dosage 20 g/ha) [%]	Pre-emergence action against MATIN in % (MATIN [10]; dosage 80 g/ha) [%]	Pre-emergence action against VIOTR in % (VIOTR; dosage 80 g/ha) [%]	Post-emergence action against ABUTH in % (ABUTH [11]; dosage 20 g/ha) [%]	Post-emergence action against MATIN in % (MATIN [12]) [%]	Pre-emergence action against VERPE in % (VERPE) [%]	Post-emergence action against ECHCG in % (ECHCG [14]; dosage 20 g/ha) [%]	further results
Cc1nnc(NC(=O)c2ccc(Br)c(C(=O)NCC(F)F)c2Cl)o1 [Example 6-145]	90	100	100	80	90	90	100	100	100	90	–	–	–	–	–	–	–	–	Post-emergence action against ALOMY in % (ALOMY [3]): 80%; Post-emergence action against SETVI in % (SETVI [4]; dosage 5 g/ha): 80%; Post-emergence action against SETVI in % (SETVI [4]; dosage 20 g/ha): 90%
CCn1nnnc1NC(=O)c1ccc(C(F)F)c(C(=O)Nc2ccccc2)c1Cl [Example 2-161]	–	–	–	80	–	90	100	100	90	–	100	80	90	100	80	80	80	–	–
Cc1c(C(=O)Nc2nnnn2C)ccc(C(F)(F)F)c1C(=O)NC1COC1 [Example 1-41]	–	–	–	–	–	–	–	–	–	–	–	–	–	–	–	–	–	–	pest or weed control at 80 g/ha (DIGSA [1]; Digitaria sanguinalis, 504 h, dosage 80 g/ha): 100%; pest or weed control at 20 g/ha (AMARE [9]): 90%; pest or weed control at 80 g/ha (MATIN [10]; dosage 80 g/ha): 100%; pest or weed control at 80 g/ha (VIOTR; dosage 80 g/ha): 100%; pest or weed control at 5 g/ha (ABUTH [11]; Abutilon theophrasti, 504 h, dosage 5 g/ha): 80%; pest or weed control at 20 g/ha (ABUTH [11]; Abutilon theophrasti, 504 h, dosage 20 g/ha): 80%; pest or weed control at 5 g/ha (DIGSA [13]; Digitaria sanguinalis, 504 h, 5 g/ha): 80%; pest or weed control at 20 g/ha (DIGSA [13]; Digitaria sanguinalis, 504 h, 20 g/ha): 90%; pest or weed control at 20 g/ha (SETVI [4]; dosage 20 g/ha): 80%; pest or weed control at 80 g/ha (VERPE): 90%; pest or weed control at 20 g/ha (AMARE [6]; [15]): 90%; pest or weed control at 80 g/ha (AMARE [6]; [17]): 100%; pest or weed control at 20 g/ha (ECHCG [14]; dosage 20 g/ha): 90%; pest or weed control at 80 g/ha (ABUTH [7]): 100%
CCNC(=O)c1c(Cl)ccc(C(=O)Nc2nnnn2C)c1Br [Example 1-350]	–	–	–	–	–	–	–	–	–	–	–	–	–	–	–	–	–	–	pest or weed control at 20 g/ha (AMARE [9]): 100%; pest or weed control at 80 g/ha (MATIN [10]; dosage 80 g/ha): 90%; pest or weed control at 80 g/ha (AVEFA; Avena fatua, 504 h): 90%; pest or weed control at 80 g/ha (SETVI [2]; Setaria viridis, 504 h): 100%; pest or weed control at 80 g/ha (VIOTR; dosage 80 g/ha): 100%; pest or weed control at 20 g/ha (SETVI [4]; dosage 20 g/ha): 80%; pest or weed control at 80 g/ha (ALOMY [5]; Alopecurus myosuroides, 504 h): 100%; pest or weed control at 80 g/ha (VERPE): 80%; pest or weed control at 20 g/ha (AMARE [6]; [15]): 100%; pest or weed control at 80 g/ha (AMARE [6]; [17]): 100%; pest or weed control at 20 g/ha (ECHCG [14]; dosage 20 g/ha): 80%; pest or weed control at 80 g/ha (ABUTH [7]): 100%; pest or weed control at 80 g/ha (ECHCG [8]; Echinochloa crus-galli, 504 h): 100%
CCn1nnnc1NC(=O)c1ccc(C(F)F)c(C(=O)NCC(F)(F)F)c1Br [Example 2-229]	–	100	100	90	90	100	100	100	80	80	90	100	100	100	80	80	80	90	Pre-emergence action against AVEFA in % (AVEFA): 90%; Post-emergence action against SETVI in % (SETVI [4]; dosage 20 g/ha): 80%
Cc1nnc(NC(=O)c2ccc(C(F)F)c(C(=O)NC(C)C)c2Cl)o1 [Example 6-260]	100	100	100	90	90	100	100	100	90	100	80	100	100	–	90	80	90	90	Post-emergence action against DIGSA in % (DIGSA [13]; 5 g/ha): 90%; Post-emergence action against DIGSA (DIGSA [13]; 20 g/ha): 90%; Post-emergence action against ECHCG in % (ECHCG [14]; dosage 5 g/ha): 90%
Cn1nnnc1NC(=O)c1ccc(C(F)(F)F)c(C(=O)NCc2cccs2)c1Cl [Example 1-144]	90	90	80	–	–	90	100	–	–	100	90	90	90	100	–	–	80	–	Pre-emergence action against VIOTR in % (VIOTR; dosage 20 g/ha): 80%
Cc1nnc(NC(=O)c2ccc(C(F)F)c(C(=O)NC(C)C3CC3)c2Br)o1 (stereo not shown) [Example 6-267]	–	–	80	80	80	90	100	100	90	80	90	90	100	80	80	–	90	90	–
Cc1nnc(NC(=O)c2ccc(C(F)F)c(C(=O)NCc3cccs3)c2Cl)o1 [Example 6-264]	–	–	80	–	–	80	100	–	–	–	80	–	–	–	–	–	90	–	Post-emergence action against DIGSA (DIGSA [13]; 20 g/ha): 80%
